In PubChem BioAssay (NCI):
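Five compound concentrations were applied to cells in 96-well plates for 48 hours; endpoints were derived by simple linear interpolation of the resulting dose-response curve. TGI denotes the concentration required for complete inhibition of growth.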

Experiments:
Test in all cases: growth of human tumour cells (NCI), 48 h
U251 CNS = test system: U251 CNS
HT29 colon = test system: HT29 colon
HOP-92 NSCLC = test system: HOP-92 NSCLC
A498 renal = test system: A498 renal
HS 578T breast = test system: HS 578T breast
SK-MEL-5 melanoma = test system: SK-MEL-5 melanoma
LOX IMVI melanoma = test system: LOX IMVI melanoma
CAKI-1 renal = test system: CAKI-1 renal
SNB-19 CNS = test system: SNB-19 CNS
TK-10 renal = test system: TK-10 renal
PC-3 prostate = test system: PC-3 prostate
M14 melanoma = test system: M14 melanoma
SNB-75 CNS = test system: SNB-75 CNS
SF-295 CNS = test system: SF-295 CNS
786-0 renal = test system: 786-0 renal
SN12C renal = test system: SN12C renal
COLO 205 colon = test system: COLO 205 colon
UACC-62 melanoma = test system: UACC-62 melanoma
NCI-H226 lung = test system: NCI-H226 lung

Compound	TGI (U251 CNS)	TGI (HT29 colon)	TGI (HOP-92 NSCLC)	TGI (A498 renal)	TGI (HS 578T breast)	TGI (SK-MEL-5 melanoma)	TGI (LOX IMVI melanoma)	TGI (CAKI-1 renal)	TGI (SNB-19 CNS)	TGI (TK-10 renal)	TGI (PC-3 prostate)	TGI (M14 melanoma)	TGI (SNB-75 CNS)	TGI (SF-295 CNS)	TGI (786-0 renal)	TGI (SN12C renal)	TGI (COLO 205 colon)	TGI (UACC-62 melanoma)	TGI (NCI-H226 lung)
O=C(O)c1cc2c(s1)C(=O)c1sccc1C2=O	15.6 µM	19 µM	30.1 µM	31.2 µM	5.91 µM	3.32 µM	3.04 µM	31.8 µM	17.1 µM	36 µM	43.5 µM	2.91 µM	3.37 µM	5.25 µM	18.1 µM	6.85 µM	32.7 µM	4.56 µM	37.1 µM
O=C(O)C/C(=C\c1ccccc1)C(=O)O	> 100 µM	> 100 µM	> 100 µM	> 100 µM	> 100 µM	> 100 µM	> 100 µM	> 100 µM	> 100 µM	> 100 µM	> 100 µM	> 100 µM	> 100 µM	> 100 µM	> 100 µM	> 100 µM	> 100 µM	> 100 µM	> 100 µM
CO[C@@H](c1ccccc1)[C@H](O)[C@](O)(c1ccccc1)P(=O)(OC)OC	> 100 µM	> 100 µM	> 100 µM	> 100 µM	> 100 µM	> 100 µM	> 100 µM	> 100 µM	> 100 µM	> 100 µM	> 100 µM	> 100 µM	> 100 µM	> 100 µM	> 100 µM	> 100 µM	> 100 µM	> 100 µM	> 100 µM
Clc1ncnc2c1nc(C#Cc1ccccc1)n2Cc1ccccc1	34.9 µM	72.2 µM	59.9 µM	> 100 µM	> 100 µM	> 100 µM	28.3 µM	37.1 µM	> 100 µM	> 100 µM	> 100 µM	53 µM	92.2 µM	> 100 µM	> 100 µM	60 µM	45.8 µM	> 100 µM	> 100 µM
N=c1oc2ccc(Cl)cc2cc1C(=O)Nc1ccccc1	> 93 µM	> 100 µM	> 100 µM	> 100 µM	> 59.6 µM	> 100 µM	> 100 µM	> 100 µM	> 100 µM	> 100 µM	> 100 µM	> 100 µM	> 86.4 µM	> 100 µM	> 100 µM	> 100 µM	> 100 µM	> 100 µM	> 100 µM
CCCCCCCC(=O)N/N=C/c1ccc(Sc2nccn2C)c([N+](=O)[O-])c1	32.2 µM	23.4 µM	15 µM	32 µM	39.3 µM	26.1 µM	22.6 µM	72.1 µM	87 µM	83.2 µM	33.2 µM	27.7 µM	39 µM	33.9 µM	32.4 µM	28.9 µM	27.5 µM	25.8 µM	32.5 µM
O=C1CCc2cc3c(cc21)CC1(Cc2ccccc2C1)C3	> 100 µM	14.2 µM	35.6 µM	66.6 µM	> 100 µM	17.8 µM	> 100 µM	47.2 µM	> 100 µM	> 100 µM	> 93.6 µM	> 100 µM	> 60.8 µM	> 87.1 µM	> 100 µM	> 100 µM	17.2 µM	> 88.3 µM	67.7 µM
N#Cc1c2c([nH]c(=O)c1C#N)CCCC2	> 100 µM	> 100 µM	> 100 µM	> 100 µM	> 100 µM	> 100 µM	> 100 µM	> 100 µM	> 100 µM	> 100 µM	> 100 µM	> 100 µM	> 100 µM	> 100 µM	> 100 µM	> 100 µM	> 100 µM	> 100 µM	> 100 µM
NC1=Nc2ccccc2Sc2nnc(-c3ccc(Cl)cc3)n21	80.6 µM	> 100 µM	> 100 µM	> 100 µM	> 100 µM	> 100 µM	> 100 µM	> 100 µM	> 100 µM	> 100 µM	> 100 µM	> 100 µM	> 100 µM	> 100 µM	82.6 µM	> 100 µM	> 100 µM	> 100 µM	> 100 µM
Cc1ccc(-c2n[nH]c(=O)[nH]2)cc1	> 100 µM	> 100 µM	> 46.4 µM	> 100 µM	> 100 µM	> 100 µM	> 100 µM	> 100 µM	> 100 µM	> 100 µM	> 100 µM	> 100 µM	> 100 µM	> 100 µM	> 100 µM	> 100 µM	> 100 µM	> 100 µM	> 100 µM
CN(C)Cc1cc(N=Nc2ccccc2Cl)cc(CN(C)C)c1O	> 100 µM	> 100 µM	> 100 µM	> 100 µM	> 100 µM	32 µM	38.7 µM	> 100 µM	> 100 µM	> 100 µM	> 100 µM	49.1 µM	> 100 µM	> 100 µM	> 100 µM	> 100 µM	> 100 µM	64.1 µM	> 100 µM
CC1CC[C@@]2(OC1)OC1C[C@H]3[C@@H]4CC[C@H]5CC(OC6OC(CO)C(OC7OC(CO)C(O)C(O)C7O)C(O)C6O)CCC5(C)[C@H]4CCC3(C)C1[C@@H]2C (some centres not stated)	17.4 µM	15.8 µM	16.5 µM	16.3 µM	17.1 µM	16.1 µM	12.3 µM	16.9 µM	17.9 µM	17.6 µM	15.1 µM	18.2 µM	18.7 µM	16.4 µM	15.6 µM	15.3 µM	14 µM	17.6 µM	16.5 µM
CN(C)c1ccc(/C=C/c2cc[n+](C)c3ccccc23)cc1	15.9 µM	12.2 µM	7.85 µM	> 58.8 µM	14 µM	6.21 µM	14.1 µM	12.2 µM	16.5 µM	25.1 µM	8.72 µM	15.8 µM	12.1 µM	> 43.2 µM	17 µM	15 µM	3.2 µM	12 µM	16.2 µM
